{"source": "DBAASP", "experiment_in_all_cases": "≥ marks a high value that may be exact or a test limit, other limits are often not marked, values filed in µg/mL are converted to µM", "key": {"[1]": {"tested_on": "Staphylococcus lugdunensis"}, "[2]": {"tested_on": "Staphylococcus warneri"}, "[3]": {"tested_on": "Staphylococcus haemolyticus"}, "[4]": {"tested_on": "Klebsiella pneumoniae ATCC 13883"}, "[5]": {"tested_on": "Staphylococcus aureus ATCC 29213"}, "[6]": {"tested_on": "Escherichia coli ATCC 25922"}, "[7]": {"tested_on": "Pseudomonas aeruginosa ATCC 27853"}, "[8]": {"tested_on": "Acinetobacter baumannii ATCC 19606"}, "[9]": {"tested_on": "Staphylococcus epidermidis ATCC 12228"}, "[10]": {"tested_on": "Pseudomonas aeruginosa"}, "[11]": {"tested_on": "Escherichia coli BL21(DE3)"}, "[12]": {"tested_on": "Staphylococcus aureus ATCC 19636"}, "[13]": {"tested_on": "Pseudomonas aeruginosa ATCC 9027"}, "[14]": {"tested_on": "Staphylococcus aureus ATCC 25923"}, "[15]": {"tested_on": "Micrococcus luteus ATCC 49732"}, "[16]": {"tested_on": "Staphylococcus aureus ATCC 12600"}, "[17]": {"tested_on": "Candida albicans ATCC 14053"}, "[18]": {"tested_on": "Escherichia coli ATCC 11775"}, "[19]": {"tested_on": "Staphylococcus aureus 209P"}, "[20]": {"tested_on": "Escherichia coli C600"}, "[21]": {"tested_on": "Bacillus subtilis VKM B-501"}, "[22]": {"tested_on": "Staphylococcus aureus ATCC 43300"}, "[23]": {"tested_on": "Pseudomonas aeruginosa CICC 21630"}, "[24]": {"tested_on": "Bacillus subtilis ATCC 6633"}, "[25]": {"tested_on": "Escherichia coli O157:H7 CICC 21530"}, "[26]": {"tested_on": "Pseudomonas aeruginosa CICC 10419"}, "[27]": {"tested_on": "Escherichia coli CVCC 1515"}, "[28]": {"tested_on": "Salmonella enterica subsp. enterica serovar Choleraesuis CVCC 503"}, "[29]": {"tested_on": "Salmonella enterica subsp. enterica serovar Enteritidis CVCC 3377"}, "[30]": {"tested_on": "Escherichia coli CVCC 195"}, "[31]": {"tested_on": "Salmonella enterica subsp. enterica serovar Typhimurium ATCC 14028"}, "[32]": {"tested_on": "Streptococcus suis CVCC 606"}, "[33]": {"tested_on": "Enterococcus faecium CMCC 1.2136"}, "[34]": {"tested_on": "Salmonella enterica subsp. enterica serovar Pullorum CVCC 1802"}, "[35]": {"tested_on": "Salmonella enterica subsp. enterica serovar Pullorum CVCC 1789"}}}
{"smiles": "CC(C)C[C@H](NC(=O)CN)C(=O)N[C@@H](CC(C)C)C(=O)N[C@@H](CCCN=C(N)N)C(=O)N[C@@H](C)C(=O)N[C@@H](CO)C(=O)N[C@@H](CO)C(=O)N[C@@H](CCCCN)C(=O)N[C@@H](Cc1c[nH]c2ccccc12)C(=O)NCC(=O)N[C@@H](CCCN=C(N)N)C(=O)N[C@@H](CCCCN)C(=O)N[C@@H](Cc1ccc(O)cc1)C(=O)N[C@@H](Cc1ccc(O)cc1)C(=O)N[C@H](C(=O)N[C@@H](CC(=O)O)C(=O)N[C@@H](CC(C)C)C(=O)N[C@@H](C)C(=O)NCC(=O)N[C@@H](CS)C(=O)N[C@@H](C)C(=O)N[C@@H](CCCCN)C(=O)N[C@@H](C)C(=O)O)C(C)C", "note": "[GLLRASSKWGRKYYVDLAGCAKA]", "values": [{"measurement": "MIC", "setting": "[1]", "result": 24.9, "unit": "µM"}, {"measurement": "MIC", "setting": "[2]", "result": 12.5, "unit": "µM"}, {"measurement": "MIC", "setting": "[3]", "result": 24.9, "unit": "µM"}, {"measurement": "MIC", "setting": "[4]", "result": 8, "unit": "µM"}, {"measurement": "MIC", "setting": "[5]", "result": 1, "unit": "µM"}, {"measurement": "MIC", "setting": "[6]", "result": 11.3, "unit": "µM"}, {"measurement": "MIC", "setting": "[7]", "result": 8, "unit": "µM"}, {"measurement": "MIC", "setting": "[8]", "result": 8, "unit": "µM"}]}
{"smiles": "CC[C@H](C)[C@H](NC(=O)[C@@H]1CCCN1C(=O)[C@H](CC(C)C)NC(=O)[C@H](CC(C)C)NC(=O)[C@H](CCCCN)NC(=O)[C@@H](N)CCCCN)C(=O)N[C@H](C(=O)N[C@@H](CCCCN)C(=O)N[C@@H](CC(N)=O)C(=O)N[C@@H](CC(C)C)C(=O)N[C@@H](CC(C)C)C(=O)N[C@@H](CCCCN)C(=O)N[C@@H](CO)C(=O)N[C@@H](CC(C)C)C(=O)N[C@@H](CC(C)C)C(=O)O)C(C)C", "note": "[KKLLPIVKNLLKSLL]", "values": [{"measurement": "MIC", "setting": "[9]", "result": 0.025, "unit": "µM"}, {"measurement": "MIC", "setting": "[10]", "result": 2.5, "unit": "µM"}, {"measurement": "MIC", "setting": "[11]", "result": 0.2, "unit": "µM"}]}
{"smiles": "CC(C)C[C@H](NC(=O)[C@H](Cc1c[nH]c2ccccc12)NC(=O)[C@H](CCCCN)NC(=O)[C@H](CC(C)C)NC(=O)[C@H](Cc1c[nH]c2ccccc12)NC(=O)[C@H](C)NC(=O)[C@H](CCCN=C(N)N)NC(=O)[C@H](Cc1c[nH]c2ccccc12)NC(=O)[C@H](CCCCN)NC(=O)[C@@H](N)CCCCN)C(=O)N[C@@H](C)C(=O)N[C@@H](CCCCN)C(=O)N[C@@H](CCCCN)C(=O)O", "note": "[KKWRAWLKWLAKK]", "values": [{"measurement": "MIC", "setting": "[12]", "result": 0.918, "unit": "µM"}, {"measurement": "MIC", "setting": "[13]", "result": 1.78, "unit": "µM"}, {"measurement": "MIC", "setting": "[5]", "result": 7.17, "unit": "µM"}, {"measurement": "MIC", "setting": "[6]", "result": 1.78, "unit": "µM"}, {"measurement": "MIC", "setting": "[7]", "result": 0.918, "unit": "µM"}, {"measurement": "MIC", "setting": "[14]", "result": 7.17, "unit": "µM"}]}
{"smiles": "CC(C)[C@H](NC(=O)[C@H](C)NC(=O)[C@@H](NC(=O)CNC(=O)[C@@H]1CCCN1)[C@@H](C)O)C(=O)N[C@@H](Cc1ccccc1)C(=O)N[C@@H](C)C(=O)O", "note": "[PGTAVFA]", "values": [{"measurement": "MIC", "setting": "[15]", "result": "≥ 1010", "unit": "µM"}, {"measurement": "MIC", "setting": "[16]", "result": "≥ 1010", "unit": "µM"}, {"measurement": "MIC", "setting": "[17]", "result": "≥ 1010", "unit": "µM"}, {"measurement": "MIC", "setting": "[18]", "result": "≥ 1010", "unit": "µM"}]}
{"smiles": "CC[C@H](C)[C@H](NC(=O)[C@H](C)NC(=O)[C@H](CCCCN)NC(=O)[C@H](CCCN=C(N)N)NC(=O)CNC(=O)[C@H](CCCCN)NC(=O)[C@H](CCCCN)NC(=O)[C@H](CCCCN)NC(=O)[C@@H](NC(=O)[C@H](CC(C)C)NC(=O)[C@H](CCCCN)NC(=O)CNC(=O)[C@H](Cc1ccccc1)NC(=O)[C@H](CC(C)C)NC(=O)CN)[C@@H](C)CC)C(=O)N[C@@H](CO)C(=O)N[C@@H](Cc1ccc(O)cc1)C(=O)N[C@@H](C)C(=O)N[C@H](C(=O)N[C@@H](CCCCN)C(=O)N[C@@H](CCCCN)C(=O)N[C@@H](C)C(=O)N[C@@H](CCCN=C(N)N)C(=O)NCC(=O)N[C@@H](CCCCN)C(=O)N[C@@H](Cc1cnc[nH]1)C(=O)O)C(C)C", "note": "[GLFGKLIKKKGRKAISYAVKKARGKH]", "values": [{"measurement": "MIC", "setting": "[19]", "result": 18, "unit": "µM"}, {"measurement": "MIC", "setting": "[20]", "result": 6, "unit": "µM"}, {"measurement": "MIC", "setting": "[21]", "result": 0.7, "unit": "µM"}]}
{"smiles": "CC(C)[C@H](NC(=O)CNC(=O)[C@H](CC(N)=O)NC(=O)[C@H](CCCN=C(N)N)NC(=O)[C@H](Cc1ccc(O)cc1)NC(=O)[C@@H](NC(=O)[C@H](C)NC(=O)[C@@H](NC(=O)[C@H](CC(N)=O)NC(=O)[C@H](Cc1c[nH]c2ccccc12)NC(=O)[C@H](C)NC(=O)[C@H](Cc1ccccc1)NC(=O)CN)C(C)C)C(C)C)C(=O)N[C@@H](CCCN=C(N)N)C(=O)N[C@H](C(=O)N[C@@H](C)C(=O)N[C@@H](Cc1cnc[nH]1)C(=O)N[C@@H](CCCN=C(N)N)C(=O)N[C@@H](CCCN=C(N)N)C(=O)N[C@@H](C)C(=O)N[C@@H](CC(N)=O)C(=O)O)C(C)C", "note": "[GFAWNVAVYRNGVRVAHRRAN]", "values": [{"measurement": "MIC", "setting": "[22]", "result": "> 26.5", "unit": "µM"}, {"measurement": "MIC", "setting": "[23]", "result": "≥ 53", "unit": "µM"}, {"measurement": "MIC", "setting": "[24]", "result": 1.66, "unit": "µM"}, {"measurement": "MIC", "setting": "[25]", "result": 6.63, "unit": "µM"}, {"measurement": "MIC", "setting": "[26]", "result": "≥ 53", "unit": "µM"}, {"measurement": "MIC", "setting": "[27]", "result": 6.63, "unit": "µM"}, {"measurement": "MIC", "setting": "[28]", "result": 26.5, "unit": "µM"}, {"measurement": "MIC", "setting": "[29]", "result": 0.414, "unit": "µM"}, {"measurement": "MIC", "setting": "[30]", "result": 13.3, "unit": "µM"}, {"measurement": "MIC", "setting": "[31]", "result": "> 26.5", "unit": "µM"}, {"measurement": "MIC", "setting": "[32]", "result": "≥ 53", "unit": "µM"}, {"measurement": "MIC", "setting": "[33]", "result": 6.63, "unit": "µM"}, {"measurement": "MIC", "setting": "[34]", "result": 13.3, "unit": "µM"}, {"measurement": "MIC", "setting": "[14]", "result": 0.829, "unit": "µM"}, {"measurement": "MIC", "setting": "[35]", "result": "≥ 53", "unit": "µM"}]}
